Test results: patent US20220411428A1, “Pyrimidone Derivatives Containing Two Fused Bicyclic Rings” (priority 2019, published 2022)

What was measured:
Type in all cases: in vivo
[1] = tested on: tobacco budworm (Heliothis virescens); experiment: Tobacco budworm (Heliothis virescens) microtiter insect-diet test; details: 120 h, read-out: mortality in comparison with untreated controls
Description: (§1) If not otherwise specified, the test solutions are prepared as follows: The active compound is dissolved at the desired concentration in a mixture of 1:1 (vol:vol) distilled water:acteone. The test solution is prepared at the day of use. Test solutions are prepared in general at concentrations of 2500 ppm, 1415 ppm, 828 ppm, 800 ppm and 300 ppm (wt/vol).
(§2) For evaluating control of tobacco budworm (Heliothis virescens) the test unit consisted of 96-well-microtiter plates containing an insect diet and 15-25 H. virescens eggs. The compounds were formulated using a solution containing 75% v/v water and 25% v/v DMSO. Different concentrations of formulated compounds were sprayed onto the insect diet at 10 μl, using a custom built micro atomizer, at two replications. After application, microtiter plates were incubated at about 28±1° C. and about 80±5% relative humidity for 5 days. Egg and larval mortality was then visually assessed.

[2] = tested on: vetch aphid (Megoura viciae); experiment: Vetch aphid (Megoura viciae) broad bean leaf disk test, contact or systemic; details: foliar, 120 h, read-out: mortality in comparison with untreated controls
Description: as §1
For evaluating control of vetch aphid (Megoura viciae) through contact or systemic means the test unit consisted of 24-well-microtiter plates containing broad bean leaf disks.
The compounds were formulated using a solution containing 75% v/v water and 25% v/v DMSO. Different concentrations of formulated compounds were sprayed onto the leaf disks at 2.5 μl, using a custom built micro atomizer, at two replications. After application, the leaf disks were air-dried and 5-8 adult aphids placed on the leaf disks inside the microtiter plate wells. The aphids were then allowed to suck on the treated leaf disks and incubated at about 23±1° C. and about 50±5% relative humidity for 5 days. Aphid mortality and fecundity was then visually assessed.

[3] = tested on: green peach aphid (Myzus persicae); experiment: Green peach aphid (Myzus persicae) systemic test, artificial diet under membrane; details: 72 h, read-out: mortality in comparison with untreated controls
Description: as §1
For evaluating control of green peach aphid (Myzus persicae) through systemic means the test unit consisted of 96-well-microtiter plates containing liquid artificial diet under an artificial membrane. The compounds were formulated using a solution containing 75% v/v water and 25% v/v DMSO. Different concentrations of formulated compounds were pipetted into the aphid diet, using a custom built pipetter, at two replications. After application, 5-8 adult aphids were placed on the artificial membrane inside the microtiter plate wells. The aphids were then allowed to suck on the treated aphid diet and incubated at about 23±1° C. and about 50±5% relative humidity for 3 days. Aphid mortality and fecundity was then visually assessed.

[4] = tested on: boll weevil (Anthonomus grandis); experiment: Boll weevil (Anthonomus grandis) microtiter insect-diet test; details: 120 h, read-out: mortality in comparison with untreated controls
Description: as §1
as §2, with “boll weevil (Anthonomus grandis)” for “tobacco budworm (Heliothis virescens)”, “5-10 A. grandis” for “15-25 H. virescens”, “5” for “10”, “25±1°” for “28±1°”, “75±5%” for “80±5%”

[5] = tested on: yellow fever mosquito (Aedes aegypti); experiment: whole plant or invertebrate; details: 48 h, larval mortality, 2 days, read-out: mortality in comparison with untreated controls
Description: as §1
For evaluating control of yellow fever mosquito (Aedes aegypti) the test unit consisted of 96-well-microtiter plates containing 200 μl of tap water per well and 5-15 freshly hatched A. aegypti 5 larvae. The active compounds were formulated using a solution containing 75% (v/v) water and 25% (v/v) DMSO. Different concentrations of formulated compounds or mixtures were sprayed onto the insect diet at 2.5 μl, using a custom-built micro atomizer, at two replications. After application, microtiter plates were incubated at 28±1° C., 80±5% R^H for 2 days. Larval 10 mortality was then visually assessed.

[6] = tested on: Greenhouse Whitefly (Trialeurodes vaporariorum); experiment: Greenhouse whitefly (Trialeurodes vaporariorum) egg plant leaf disk test; details: foliar, 144 h, read-out: mortality in comparison with untreated controls
Description: as §1
For evaluating control of Greenhouse Whitefly (Trialeurodes vaporariorum) the test unit consisted of 96-well-microtiter plates containing a leaf disk of egg plant leaf disk with white fly eggs. The compounds or mixtures were formulated using a solution containing 75% water and 25% DMSO. Different concentrations of formulated were sprayed onto the insect diet at 2.5 μl, using a custom-built micro atomizer, at two replications. After application, microtiter plates were incubated at 23±1° C., 65±5% R^H for 6 days. Mortality of hatched crawlers was then visually assessed.

Structure (SMILES)	mortality at 2500 ppm [1] [%]	mortality at 2500 ppm [2] [%]	mortality at 2500 ppm [3] [%]	mortality at 800 ppm [4] [%]	mortality at 2500 ppm [5] [%]	mortality at 2500 ppm [6] [%]	mortality at 828 ppm [4] [%]	mortality at 800 ppm [1] [%]	mortality at 800 ppm [3] [%]	mortality at 800 ppm ([5]; 800 ppm) [%]
CCS(=O)(=O)c1c(-c2cn3c(=O)n(C)c(C(F)(F)F)cc3n2)nc2ccc(C(F)(F)F)cn12 [I.1, 2-[3-ethylsulfonyl-6-(trifluoromethyl)imidazo[1,2-a]pyridin-2-yl]-6-methyl-7-(trifluoromethyl)imidazo[1,2-c]pyrimidin-5-one]	> 75	> 75	> 75	> 75	≥ 75					
CCS(=O)(=O)c1c(-c2cn3c(=O)n(C4CC4)c(C(F)(F)F)cc3n2)nc2ccccn12 [I.2, 6-cyclopropyl-2-[3-(ethanesulfonyl)imidazo[1,2-a]pyridin-2-yl]-7-(trifluoromethyl)imidazo[1,2-c]pyrimidin-5-one]			> 75		≥ 75	≥ 75	> 75			
CCS(=O)(=O)c1c(-c2cn3c(=O)n(C4CC4)c(C(F)(F)F)cc3n2)nn2ccccc12 [I.11, 6-cyclopropyl-2-(3-ethylsulfonylpyrazolo[1,5-a]pyridin-2-yl)-7-(trifluoromethyl)imidazo[1,2-c]pyrimidin-5-one]				> 75				> 75	> 75	≥ 75
CCS(=O)(=O)c1c(-c2cn3c(=O)n(C)c(C(F)(F)F)cc3n2)nc2n1CCCC2 [I.13, 2-(3-ethylsulfonyl-5,6,7,8-tetrahydroimidazo[1,2-a]pyridin-2-yl)-6-methyl-7-(trifluoromethyl)imidazo[1,2-c]pyrimidin-5-one]				> 75						
